Measured values taken from the supplement of paper PMC4862054.

Columns and labels:
Conditions in all cases: incubation time: 72 h
[1] = system: MFM-223; test: normalised viability (% of control), CellTiter-Blue; higher = more viable cells (about 100 = DMSO control)
Outline: (§1)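 Breast cancer cell lines in 20 µl suspension were seeded onto 384-well plates pre-loaded with compound dissolved in 5 µl medium, then incubated 72 h. CellTiter-Blue reagent (2.5 µl) was added for 2 h at 37 °C and fluorescence read at 560/590 nm. Each plate was normalised to vehicle (100) and a positive kill control (0), with Z'-factor quality control. The value is normalised viability at one listed concentration of the series.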

[2] = system: CAL-120; test: as above
Outline: as §1

[3] = system: CAL-51; test: as above
Outline: as §1

[4] = system: HCC1937; test: as above
Outline: as §1

[5] = system: MDA-MB-231; test: as above
Outline: as §1

[6] = system: MDA-MB-468; test: as above
Outline: as §1

[7] = system: DU-4475; test: as above
Outline: as §1

[8] = system: Hs578T; test: as above
Outline: as §1

[9] = system: CAL-85-1; test: as above
Outline: as §1

[10] = system: MFM-223; test: drug sensitivity score (DSS), CellTiter-Glo (DSS (AUC-based score)); higher = stronger drug effect (viability inhibition or cytotoxicity); extreme values may be limits of the assay
Outline: (§2)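 Compound was dispensed into 384-well plates at 5 concentrations in 10-fold steps spanning a 10,000-fold range chosen for each compound, and 20 µl of breast cancer cell suspension was added before 72 h of incubation. CellTox Green fluorescence was read at 485/520 nm, followed by CellTiter-Glo luminescence after 10 min at room temperature. Values on each plate were normalised to 0.1 % DMSO and a positive kill control. The drug sensitivity score came from the area under the fitted dose-response curve.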

[11] = system: CAL-120; test: as above
Outline: as §2

[12] = system: HCC1599; test: as above
Outline: as §2

[13] = system: SK-BR-3; test: as above
Outline: as §2

[14] = system: BT-549; test: as above
Outline: as §2

[15] = system: MDA-MB-453; test: as above
Outline: as §2

[16] = system: CAL-51; test: as above
Outline: as §2

[17] = system: BT-474; test: as above
Outline: as §2

[18] = system: HCC1937; test: as above
Outline: as §2

[19] = system: MDA-MB-231; test: as above
Outline: as §2

[20] = system: HCC1143; test: as above
Outline: as §2

[21] = system: MCF-10A; test: as above
Outline: as §2

[22] = system: Hs578T; test: as above
Outline: as §2

[23] = system: CAL-148; test: as above
Outline: as §2

[24] = system: MDA-MB-436; test: as above
Outline: as §2

[25] = system: CAL-85-1; test: as above
Outline: as §2

CC(C)(C)NC(=O)[C@H]1CC[C@H]2[C@@H]3CC[C@H]4NC(=O)C=C[C@]4(C)[C@H]3CC[C@]12C [Finasteride]
normalised viability [%]
Conditions | [1] | [2] | [3] | [4] | [5] | [6] | [7] | [8] | [9]
3 nM | – | – | 112 | – | – | – | 97.7 | – | 100
10 nM | 106 | 108 | – | 107 | 98.2 | 106 | – | 64.2 | –
30 nM | – | – | 108 | – | – | – | 106 | – | 91.7
100 nM | – | – | 103 | – | – | – | 103 | – | 100
1000 nM | 97.7 | 108 | – | 94.7 | 98.5 | 99.2 | – | 108 | –
10000 nM | 41.8 | 116 | – | 106 | 122 | 121 | – | 117 | –

Conditions | drug sensitivity score
[10] | 0
[11] | 0
[12] | 0
[13] | 0
[14] | 0
[15] | 0
[16] | 0
[17] | 0
[18] | 0
[19] | 0
[20] | 0
[21] | 0
[22] | 0
[23] | 0
[24] | 0
[25] | 0

C=CCn1c(=O)c2cnc(Nc3ccc(N4CCN(C)CC4)cc3)nc2n1-c1cccc(C(C)(C)O)n1 [MK1775]
normalised viability [%]
Conditions | [1] | [2] | [3] | [4] | [5] | [6] | [7] | [8] | [9]
3 nM | – | – | 98.9 | – | – | – | 87.8 | – | 79.6
10 nM | 102 | 91.2 | – | 77.7 | 84 | 110 | – | 111 | –
30 nM | – | – | 90.8 | – | – | – | 98.3 | – | 80.9
100 nM | – | – | 87 | – | – | – | 75.7 | – | 78.6
1000 nM | 44.3 | 26 | – | 34.1 | 26.9 | 46.3 | – | 34.4 | –
10000 nM | 40.1 | 9.09 | – | 27.2 | 16.9 | 10.1 | – | 16.2 | –

Conditions | drug sensitivity score
[10] | 12.4
[11] | 12.1
[12] | 19.9
[13] | 18.8
[14] | 15.7
[15] | 14.6
[16] | 15.5
[17] | 13.9
[18] | 12.4
[19] | 15.7
[20] | 11.6
[21] | 9.77
[22] | 14.5
[23] | 19.3
[24] | 16.7
[25] | 16.2

CC(O)(CS(=O)(=O)c1ccc(F)cc1)C(=O)Nc1ccc(C#N)c(C(F)(F)F)c1 (stereo not given) [Bicalutamide]
normalised viability [%]
Conditions | [1] | [2] | [3] | [4] | [5] | [6] | [7] | [8] | [9]
3 nM | – | – | 116 | – | – | – | 92.2 | – | 93.7
10 nM | 89.2 | 96 | – | 101 | 103 | 118 | – | 108 | –
30 nM | – | – | 109 | – | – | – | 88.8 | – | 97.3
100 nM | – | – | 99.1 | – | – | – | 99.1 | – | 104
1000 nM | 91.8 | 107 | – | 107 | 122 | 93.9 | – | 112 | –
10000 nM | 94 | 119 | – | 78.5 | 122 | 91.3 | – | 113 | –

Conditions | drug sensitivity score
[10] | 0
[11] | 0
[12] | 0
[13] | 0
[14] | 0
[15] | 0.186
[16] | 0
[17] | 0
[18] | 0
[19] | 0
[20] | 0
[21] | 0
[22] | 0
[23] | 0
[24] | 0
[25] | 0

COc1ccc(S(=O)(=O)Nc2cccnc2Nc2ccc(O)cc2)cc1 [ABT-751]
normalised viability [%]
Conditions | [1] | [2] | [3] | [4] | [5] | [6] | [7] | [8] | [9]
3 nM | – | – | 114 | – | – | – | 88.8 | – | 94.1
10 nM | 94.7 | 81.7 | – | 86.8 | 89.3 | 105 | – | 98.9 | –
30 nM | – | – | 107 | – | – | – | 95.2 | – | 86.2
100 nM | – | – | 107 | – | – | – | 89.9 | – | 88.9
1000 nM | 62.6 | 26.8 | – | 24.7 | 28.8 | 55.9 | – | 16.6 | –
10000 nM | 25.4 | 21.6 | – | 14 | 14.7 | 34.7 | – | 14.4 | –

Conditions | drug sensitivity score
[10] | 7.28
[11] | 7.83
[12] | 11.2
[13] | 13.1
[14] | 9.41
[15] | 10.5
[16] | 2.26
[17] | 6.74
[18] | 2.93
[19] | 7.19
[20] | 6.19
[21] | 2.74
[22] | 10.9
[23] | 3.29
[24] | 11.4
[25] | 12.2

COc1cc(Nc2c(C#N)cnc3cc(OCCCN4CCN(C)CC4)c(OC)cc23)c(Cl)cc1Cl [Bosutinib]
normalised viability [%]
Conditions | [1] | [2] | [3] | [4] | [5] | [6] | [7] | [8] | [9]
3 nM | – | – | 115 | – | – | – | 105 | – | 92.2
10 nM | 100 | 87.5 | – | 106 | 98.9 | 104 | – | 120 | –
30 nM | – | – | 114 | – | – | – | 108 | – | 111
100 nM | – | – | 120 | – | – | – | 86.5 | – | 96.8
1000 nM | 80.8 | 70.5 | – | 84.9 | 142 | 95.2 | – | 98.2 | –
10000 nM | 36.8 | 11.1 | – | 8.95 | 2.42 | 14.5 | – | 27.4 | –

Conditions | drug sensitivity score
[10] | 4.34
[11] | 5.53
[12] | 5.58
[13] | 5.72
[14] | 4.99
[15] | 5.47
[16] | 7.53
[17] | 6.85
[18] | 7.57
[19] | 8.52
[20] | 3.67
[21] | 15.1
[22] | 0.947
[23] | 1.7
[24] | 7.31
[25] | 9.16
